Experimental data from patent publication US10005768B2, “Carboxamide derivatives and use thereof” (Purdue Pharma L.P., priority 2013, dated 2018).

These compounds were tested against human Nav1.7 (Homo sapiens (Human), UniProt Q15858) (assay: FLIPR sodium dye assay (CoroNa Green AM Na+ dye, primary fluorescence assay)). Conditions: recombinant Nav1.7/HEK293 cells.
Format: cell-based
Protocol: In vitro assays were performed in a recombinant cell line expressing cDNA encoding the alpha subunit (Nav1.7, SCN9a, PN1, NE) of human Nav1.7 (Accession No. NM_002977). The cell line was provided by investigators at Yale University (Cummins et al, J. Neurosci. 18(23): 9607-9619 (1998)). For dominant selection of the Nav1.7-expressing clones, the expression plasmid co-expressed the neomycin resistance gene. The cell line was constructed in the human embryonic kidney cell line, HEK293, under the influence of the CMV […] promoter, and stable clones were selected using limiting dilution cloning and antibiotic selection using the neomycin analogue, G418. Recombinant beta and gamma subunits were not introduced into this cell line. Additional cell lines expressing recombinant Nav1.7 cloned from other species can also be used, alone or in combination with various beta subunits, gamma subunits or chaperones.
Unless otherwise noted, cell culture reagents were purchased from Mediatech of Herndon, Va. The recombinant Nav1.7/HEK293 cells were routinely cultured in growth medium consisting of Dulbecco's […] essential medium containing 10% fetal bovine serum (FBS, Hyclone, Thermo Fisher Scientific, Logan, Utah), 100 U/mL penicillin, 100 μg/mL streptomycin, 2-4 mM L-glutamine, and […] G418. For natural, non-recombinant cell lines, the selective antibiotic was omitted, and additional media formulations can be applied as needed.
The final buffer consisted of 20 mM Hepes, pH 7.3, 1.261 mM CaCl2, 0.493 mM MgCl2, 0.407 mM Mg(SO)4, 5.33 mM KCl, 0.441 mM KH2PO4, 137 mM NaCl, 0.336 mM Na2HPO4 and […] D-glucose (Hanks et al., Proc. Soc. Exp. Biol. Med. 71:196 (1949)), and the simple formulation was typically the basic buffer throughout the assay (i.e., all wash and addition steps).
The fluorescence indicator used in the primary fluorescence assay was the cell permeant version of CoroNa™ Green (Invitrogen, Molecular Probes, Eugene, Oreg.), a dye that emits light in the fluorescence range (Harootunian et al., J. Biol. Chem. 264(32):19458-19467 (1989)). The intensity of this emission, but not the wavelength range, is increased when the dye is exposed to Na^+ ions, which it can bind with partial selectivity. Cells expressing Nav1.7 or other sodium channels were loaded with the CoroNa™ Green dye immediately in advance of the fluorescence assay, and then, after agonist stimulation, the mobilization of Na^+ ions was detected as the Na^+ ions flowed from the extracellular fluid into the cytoplasm through the activated sodium channel pores. The dye was stored in the dark as a lyophilized powder, and then an aliquot was dissolved immediately before the cell loading procedure, according to the instructions of the manufacturer, to a stock concentration of 10 mM in DMSO. It was then diluted in the assay buffer to a 4× concentrated working solution, so that the final concentration of dye in the cell loading buffer was 5 μM.
In the fluorescence assays, two agonists were used in combination, namely 1) veratridine; and 2) the venom from the yellow scorpion, Leiurus quinquestriatus hebraeus. Veratridine is an alkaloid small molecule that facilitates the capture of channel openings by inhibiting inactivation, and the scorpion venom is a natural preparation that includes peptide toxins selective for different subsets of voltage-gated sodium channels. These scorpion toxins inhibit the fast inactivation of their cognate target channels. Stock solutions of the agonists were prepared to 40 mM in DMSO (veratridine) and 1 mg/mL in dH2O (scorpion venom), and then diluted to make a 4× or 2× stock (depending on the particular assay) in assay buffer, the final concentration being 100 μM (veratridine) and 10 μg/mL (scorpion venom). Both of the agonists were purchased from Sigma Aldrich, St. Louis, Mo.
Test compounds were dissolved in DMSO to yield 10 mM stock solutions. […]

Sequence of human Nav1.7 (Q15858 other isoform, or with tags, fused parts or gaps): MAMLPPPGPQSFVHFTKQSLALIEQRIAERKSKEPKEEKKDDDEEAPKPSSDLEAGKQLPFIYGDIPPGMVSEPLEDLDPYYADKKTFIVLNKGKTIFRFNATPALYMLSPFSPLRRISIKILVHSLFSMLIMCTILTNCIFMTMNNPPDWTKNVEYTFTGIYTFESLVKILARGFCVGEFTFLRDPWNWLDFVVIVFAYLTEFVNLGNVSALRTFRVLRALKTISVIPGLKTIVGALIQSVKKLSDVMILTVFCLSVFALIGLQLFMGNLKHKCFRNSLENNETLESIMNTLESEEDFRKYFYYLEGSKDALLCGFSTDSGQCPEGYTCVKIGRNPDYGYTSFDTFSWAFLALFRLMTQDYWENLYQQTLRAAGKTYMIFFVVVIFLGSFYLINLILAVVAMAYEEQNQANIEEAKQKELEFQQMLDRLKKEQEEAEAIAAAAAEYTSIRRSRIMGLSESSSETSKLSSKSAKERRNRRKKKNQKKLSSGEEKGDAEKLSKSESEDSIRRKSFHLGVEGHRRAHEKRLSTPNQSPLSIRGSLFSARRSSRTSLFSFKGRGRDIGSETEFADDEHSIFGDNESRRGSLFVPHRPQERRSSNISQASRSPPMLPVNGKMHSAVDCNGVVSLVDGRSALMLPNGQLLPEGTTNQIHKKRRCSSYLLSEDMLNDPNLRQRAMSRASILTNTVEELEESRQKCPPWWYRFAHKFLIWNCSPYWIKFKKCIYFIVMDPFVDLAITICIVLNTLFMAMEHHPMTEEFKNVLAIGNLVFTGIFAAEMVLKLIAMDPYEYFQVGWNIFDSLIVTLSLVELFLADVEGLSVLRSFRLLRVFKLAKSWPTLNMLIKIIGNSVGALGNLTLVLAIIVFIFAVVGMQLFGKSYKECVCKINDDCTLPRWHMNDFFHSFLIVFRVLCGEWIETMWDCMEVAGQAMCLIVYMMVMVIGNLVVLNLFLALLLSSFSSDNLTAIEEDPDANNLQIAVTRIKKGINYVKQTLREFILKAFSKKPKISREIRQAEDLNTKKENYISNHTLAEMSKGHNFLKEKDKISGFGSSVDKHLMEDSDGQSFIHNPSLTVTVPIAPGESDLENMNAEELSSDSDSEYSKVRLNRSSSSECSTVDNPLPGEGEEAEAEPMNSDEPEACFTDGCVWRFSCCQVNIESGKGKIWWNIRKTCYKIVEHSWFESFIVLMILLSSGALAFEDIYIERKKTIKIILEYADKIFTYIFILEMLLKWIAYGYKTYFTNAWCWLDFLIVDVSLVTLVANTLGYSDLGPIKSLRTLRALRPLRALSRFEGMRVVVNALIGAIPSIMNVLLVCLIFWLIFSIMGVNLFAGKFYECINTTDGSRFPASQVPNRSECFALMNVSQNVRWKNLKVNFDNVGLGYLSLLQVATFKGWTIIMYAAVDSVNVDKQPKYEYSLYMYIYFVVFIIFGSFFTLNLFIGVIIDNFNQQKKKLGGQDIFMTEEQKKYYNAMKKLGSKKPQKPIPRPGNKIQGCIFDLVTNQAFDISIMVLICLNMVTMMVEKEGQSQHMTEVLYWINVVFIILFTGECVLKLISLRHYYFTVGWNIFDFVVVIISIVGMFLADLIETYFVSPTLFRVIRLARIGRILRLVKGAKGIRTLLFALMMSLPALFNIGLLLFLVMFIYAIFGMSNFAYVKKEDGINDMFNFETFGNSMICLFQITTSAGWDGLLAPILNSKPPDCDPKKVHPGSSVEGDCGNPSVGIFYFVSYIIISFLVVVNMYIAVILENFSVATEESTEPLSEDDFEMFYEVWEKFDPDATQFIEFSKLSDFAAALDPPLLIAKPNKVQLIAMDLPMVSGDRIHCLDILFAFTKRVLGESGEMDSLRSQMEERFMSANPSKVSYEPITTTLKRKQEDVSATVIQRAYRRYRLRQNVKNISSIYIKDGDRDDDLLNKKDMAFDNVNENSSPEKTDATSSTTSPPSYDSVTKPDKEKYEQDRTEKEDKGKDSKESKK

Row | IC50 [µM] | Compound
1 | 0.566 ± 0.062 | NC(=O)c1cccc(-c2ccc(Oc3ccc(C(F)(F)F)cc3CN3CCCC(O)C3)cc2)n1 (stereo not drawn) [compound 51, 6-(4-(2-((3-hydroxypiperidin-1-yl)methyl)-4-(trifluoromethyl)-phenoxy)phenyl)picolinamide]
2 | 0.141 ± 0.022 | NC(=O)c1cccc(-c2ccc(Oc3ccc(C(F)(F)F)cc3CN3CCNC(=O)C3)cc2)n1 [compound 35, 6-(4-(2-((3-oxopiperazin-1-yl)methyl)-4-(trifluoromethyl)-phenoxy)phenyl)picolinamide]
3 | 1.07 ± 0.117 | CN(C)CCN(C)Cc1cc(C(F)(F)F)ccc1Oc1ccc(-c2cccc(C(N)=O)n2)cc1 [compound 37, 6-(4-(2-(((2-(dimethylamino)-ethyl)(methyl)amino)methyl)-4-(trifluoromethyl)phenoxy)-phenyl)picolinamide]
4 | 0.972 ± 0.114 | OC[C@@H](O)c1cccc(-c2ccc(Oc3ccc(C(F)(F)F)cc3CN3CC[C@H](O)C3)cc2)n1 [compound 75, (S)-1-(6-(4-(2-(((S)-3-hydroxypyrrolidin-1-yl)methyl)-4-(trifluoromethyl)phenoxy)-phenyl)pyridin-2-yl)ethane-1,2-diol]
5 | 0.179 ± 0.034 | CN(C)Cc1cc(C(F)(F)F)ccc1Oc1ccc(-c2cccc(C(N)=O)n2)cc1 [compound 39, 6-(4-(2-((dimethylamino)methyl)-4-(trifluoromethyl)phenoxy)-phenyl)picolinamide]
6 | 0.066 ± 0.007 | CCN(C)Cc1cc(C(F)(F)F)ccc1Oc1ccc(-c2cccc(C(N)=O)n2)cc1 [compound 117, 6-(4-(2-((ethyl(methyl)amino)methyl)-4-(trifluoromethyl)phenoxy)phenyl) picolinamide]
7 | 1.85 ± 0.361 | NC(=O)c1cccc(-c2ccc(Oc3ccc(C(F)(F)F)cc3CN3CCC(N)C3)cc2)n1 (stereo not drawn) [compound 60, 6-(4-(2-((3-aminopyrrolidin-1-yl)methyl)-4-(trifluoromethyl)-phenoxy)phenyl)picolinamide]
8 | > 20 | CN(c1ccccc1)c1cc(-c2cccc(C(N)=O)n2)ccc1Oc1ccc(F)cc1 [compound 92, 6-(4-(4-fluorophenoxy)-3-(methyl(phenyl)amino)phenyl) picolinamide]
9 | 1.77 ± 0.57 | NC(=O)c1cccc(-c2ccc(Oc3ccc(C(F)(F)F)cc3CNCCN3CCNC3=O)cc2)n1 [compound 34, 6-(4-(2-(((2-(2-oxoimidazolidin-1-yl)ethyl)amino)methyl)-4-(trifluoromethyl)phenoxy)phenyl) picolinamide]
10 | 0.147 ± 0.016 | N#Cc1ccc(Oc2ccc(-c3cccc(C(N)=O)n3)cc2)c(-c2ccncc2)c1 [compound 15, 6-(4-(4-cyano-2-(pyridin-4-yl)phenoxy)phenyl)picolinamide]
11 | 4.24 ± 0.919 | NC(=O)c1cccc(-c2ccc(Oc3ccc(F)cc3)c(CN3CCCC3)c2)n1 [compound 97, 6-(4-(4-fluorophenoxy)-3-(pyrrolidin-1-ylmethyl)phenyl)-picolinamide]
12 | 0.143 ± 0.023 | CCN(CC)C(=O)c1cc(C(F)(F)F)ccc1Oc1ccc(-c2cccc(C(N)=O)n2)cc1 [compound 164, 6-(4-(2-(diethylcarbamoyl)-4-(trifluoromethyl)phenoxy)phenyl) picolinamide]
13 | 0.768 ± 0.051 | NC(=O)c1cccc(-c2ccc(Oc3ccc(C(F)(F)F)cc3CN3CCC3)cc2)n1 [compound 50, 6-(4-(2-(azetidin-1-ylmethyl)-4-(trifluoromethyl)phenoxy)phenyl) picolinamide]
14 | 0.31 ± 0.066 | NC(=O)c1cccc(-c2ccc(Oc3ccc(C(F)(F)F)c(CN4CC(N)C4)c3)cc2)n1 [compound 62, 6-(4-(3-((3-aminoazetidin-1-yl)methyl)-4-(trifluoromethyl)phenoxy)phenyl) picolinamide]
15 | 1.16 ± 0.076 | NC(=O)c1cccc(-c2ccc(Oc3ccc(C(F)(F)F)cc3CN3CCC[C@H]3C(N)=O)cc2)n1 [compound 44, (S)-6-(4-(2-((2-carbamoyl-pyrrolidin-1-yl)methyl)-4-(trifluoromethyl)phenoxy)phenyl) picolinamide]
16 | 0.173 ± 0.033 | NC(=O)c1cccc(-c2ccc(Oc3ccc(C(F)(F)F)c(CN4CCCC4)c3)cc2)n1 [compound 56, 6-(4-(3-(pyrrolidin-1-ylmethyl)-4-(trifluoromethyl)phenoxy)phenyl) picolinamide]
17 | 0.28 ± 0.009 | NC(=O)c1cccc(-c2ccc(Oc3ccc(C(F)(F)F)cc3CNC3CCCC3)cc2)n1 [compound 108, 6-(4-(2-((cyclopentylamino)-methyl)-4-(trifluoromethyl)-phenoxy)phenyl)picolinamide]
18 | 0.961 ± 0.07 | NC(=O)c1cccc(-c2ccc(Oc3ccc(F)cc3)c(CN3CCOCC3)c2)n1 [compound 98, 6-(4-(4-fluorophenoxy)-3-(morpholinomethyl)phenyl)picolin-amide]
19 | 2.14 ± 0.199 | NCC(O)c1cc(C(F)(F)F)ccc1Oc1ccc(-c2cccc(C(N)=O)n2)cc1 (stereo not drawn) [compound 64, 6-(4-(2-(2-amino-1-hydroxy-ethyl)-4-(trifluoromethyl)-phenoxy)phenyl)picolinamide]
20 | 0.337 ± 0.056 | NC(=O)c1cccc(-c2ccc(Oc3ccc(C(F)(F)F)cc3C(O)C[N+](=O)[O-])cc2)n1 (stereo not drawn) [compound 63, 6-(4-(2-(1-hydroxy-2-nitroethyl)-4-(trifluoromethyl)phenoxy)-phenyl)picolinamide]
21 | 1.33 ± 0.209 | CCN(CC)Cc1cc(-c2cccc(C(N)=O)n2)ccc1Oc1ccc(F)cc1 [compound 95, 6-(3-((diethylamino)methyl)-4-(4-fluorophenoxy)phenyl) picolinamide]
22 | > 20 | CNC(=O)c1cc(C(F)(F)F)ccc1Oc1ccc(-c2cccc(C(N)=O)n2)cc1 [compound 163, 6-(4-(2-(methylcarbamoyl)-4-(trifluoromethyl)phenoxy)phenyl) picolinamide]
23 | 1.3 ± 0.056 | CCN(CC)S(=O)(=O)c1cc(C(F)(F)F)ccc1Oc1ccc(-c2cccc(C(N)=O)n2)cc1 [compound 109, 6-(4-(2-(N,N-diethylsulfamoyl)-4-(trifluoromethyl)phenoxy)phenyl)picolinamide]
24 | 0.054 ± 0.005 | N#Cc1ccc(Oc2ccc(-c3cccc(C(N)=O)n3)cc2)cc1-c1ccncc1 [compound 26, 6-(4-(4-cyano-3-(pyridin-4-yl)phenoxy)phenyl)picolinamide]
25 | > 20 | CN(CCO)C(=O)c1cc(C(F)(F)F)ccc1Oc1ccc(-c2cccc(C(N)=O)n2)cc1 [compound 161, 6-(4-(2-((2-hydroxyethyl)-(methyl)carbamoyl)-4-(trifluoromethyl)phenoxy)phenyl) picolinamide]
26 | 0.549 ± 0.085 | N#Cc1ccc(Oc2ccc(-c3cccc(C(N)=O)n3)cc2)cc1-c1cccnc1 [compound 27, 6-(4-(4-cyano-3-(pyridin-3-yl)phenoxy)phenyl)picolinamide]
27 | 0.101 ± 0.021 | NC(=O)c1cccc(-c2ccc(Oc3ccc(C(F)(F)F)cc3-c3ccncc3)cc2)n1 [compound 28, 6-(4-(2-(pyridin-4-yl)-4-(trifluoromethyl)phenoxy)phenyl) picolinamide]
28 | 0.049 ± 0.003 | NC(=O)c1cccc(-c2ccc(Oc3ccc(C(F)(F)F)cc3CN3CCCC3)cc2)n1 [compound 30, 6-(4-(2-(pyrrolidin-1-ylmethyl)-4-(trifluoromethyl)phenoxy)phenyl) picolinamide]
29 | 0.223 ± 0.018 | NC(=O)c1cccc(-c2ccc(Oc3ccc(C(F)(F)F)cc3CN3CCOCC3)cc2)n1 [compound 43, 6-(4-(2-(morpholinomethyl)-4-(trifluoromethyl)phenoxy)phenyl) picolinamide]
30 | 0.636 ± 0.065 | OC[C@@H](O)c1ccnc(-c2ccc(Oc3ccc(C(F)(F)F)cc3CN3CCCC3)cc2)n1 [compound 116, (S)-1-(2-(4-(2-(pyrrolidin-1-ylmethyl)-4-(trifluoromethyl)phenoxy)phenyl)pyrimidin-4-yl)ethane-1,2-diol]
